From patent US10414983B2, “Curved liquid crystal display” (SAMSUNG DISPLAY CO., LTD., priority 2017, dated 2019)

Assay: Adsorption force of the first compound
Type: physicochemical
Set-up: unit not given here
Settings: adsorption to pixel electrode; unit not given; larger absolute value = stronger adsorption
Excerpt: Next, a physical characteristic of the first compound according to an example embodiment obtained as above-described and a comparative example are compared.
As described in Table 2, solubility and adsorption force of the first compound according to Examples 1 to 7 and the Comparative Example are described.
Referring to Table 2, in the case of the first compound according to an example embodiment, it is confirmed that the solubility is the same level as or higher than the comparative example. Also, it may be confirmed that an absolute value of the adsorption force of the first compound is the same level as or higher than the comparative example. Accordingly, the first compound may be easily absorbed to the pixel electrode, thereby it may be confirmed that the solubility is excellent when being injected to the liquid crystal material and the first compound is easily injected along with the liquid crystal material.

Structure (SMILES) | Adsorption force
C=CC(=O)OCCOc1c(F)cc(-c2ccc(OCCOC(=O)CCOCc3cccnn3)cc2)cc1F [Example 6] | −0.51
C=C(C)C(=O)OCCCc1cc(-c2ccccc2CC)cc(CCCOC(=O)C(=C)C)c1OCCCCCc1ccc(OCCCCCO)cc1 [Comparative Example, reference compound] | −0.49
C=C(C)C(=O)OCCCCCOc1ccc(C(=O)c2ccc(OCCCCCCOC(=O)CCN(CCO)CCO)cc2)cc1 [Example 2] | −1.34
C=C(C)C(=O)OCCCCCOc1c(F)cc(-c2ccc(OCCCCCCOC(=O)CCN(CCC)CCO)cc2)cc1F [Example 3] | −0.99
C=C(CCN(CCO)CCO)Oc1ccc(C(=O)c2ccc(OC(=O)C(=C)C)cc2)cc1 [Example 1] | −1.27

More lines, now with the values ahead:

Adsorption force | Structure (SMILES)
−0.45 | C=CC(=O)OCCOc1c(F)cc(-c2ccc(OCCOC(=O)CCOCc3ccoc3)cc2)cc1F [Example 5]
−0.53 | C=CC(=O)OCCOc1c(F)cc(-c2ccc(OCCOC(=O)CCOCc3ccon3)cc2)cc1F [Example 7]
−0.40 | C=CC(=O)OCCOc1c(F)cc(-c2ccc(OCCOC(=O)CCOC3CCOCC3)cc2)cc1F [Example 4]
